In patent US20180273573A1, “INHIBITORS OF MENAQUINONE BIOSYNTHESIS” (Memorial Sloan-Kettering Cancer Center, priority 2015, published 2018):
Converted amounts (≈) assume the structure as drawn. Like-named read-outs stand apart in the source and are kept apart here.

Legend:
B. subtilis (ATCC 6051) = assay: MIC, Alamar blue assay; type: cell-based; details: Bacillus subtilis, ATCC6051
[1] = test system: MRSA, S. aureus (ATCC BAA-1762); assay: MIC, Alamar blue assay; type: cell-based, methicillin-resistant S. aureus; details: Staphylococcus aureus
M. tuberculosis (H37Rv) = assay: MIC, Alamar blue assay; type: cell-based; details: Mycobacterium tuberculosis
[2] = test system: B. subtilis, MRSA, M. tuberculosis and E. coli; assay: Antibacterial activity and MK4 growth rescue, statements over all bacteria tested; type: cell-based; details: for increase in MIC values when complemented with exogenous menaquinone-4: B. subtilis, MRSA, M. tuberculosis
[3] = test system: menaquinone levels in S. aureus ATCC BAA-1762 (MRSA); assay: Menaquinone levels by LC-MS/MS after lipid extraction; type: cell-based; details: for decrease in menaquinone-8: MRSA, FIG. 9, two independent experiments
Source text: The 1959 Blight/Dyer lipid extraction protocol was followed. Menaquinone levels were quantified by LC-MS/MS using standard curves generated with MK4 and MK9. A distribution of MKs are present in untreated MRSA with MK8 most abundant.
Standard error shown for two independent experiments. *p≤0.05, **p≤0.01.
To provide direct insight into the mode of action of the MenE inhibitors, we analyzed the effect of OSB-AMS on menaquinone-levels in S. aureus by tandem MS (FIG. 2), as follows. Cultures of S. aureus ATCC BAA-1762 (5 mL in Synthetic Broth medium with 10% glucose) were incubated overnight in a 37° C. shaker in the presence or absence of OSB-AMS (15.6 μg/mL final concentration). The Blight and Dyer (1959) lipid extraction protocol was used to isolate the menaquinone-containing fraction from the cells.^(5) Briefly, 0.75 mL of 1:2 (v/v) CHCl3:MeOH was added to 0.2 mL of culture. The mixture was vortexed thoroughly, and 0.25 mL of CHCl3 was added followed by further vortexing after which 0.25 mL of H2O was added. The mixture was then vortexed and centrifuged at 1000 rpm for 5 minutes at room temperature. The bottom phase was recovered, transferred to a glass vial and 200 μL was analyzed by APCI LC-MS/MS in positive ion mode using a Thermo TSQ Quantum Access (Thermo-Fisher) Triple Quadrupole Mass Spectrometer. Menaquinone levels were quantified using standard established for MK4 and MK9. Samples were introduced into the mass spectrometer by flow injection at 100 μL/min with 2:1 MeOH/CHCL3 as the solvent. Multiple Reaction Monitoring (MRM) was performed at 30 eV. MK4, MK5 and MK6 were quantified using the standard curve for MK4 whereas MK7, MK8, and MK9 were quantified using MK9.

E. coli = assay: MIC, Alamar blue assay; type: cell-based, E. coli (K-12); details: Escherichia coli; Table E2; ~90% cell death
wild-type E. coli MenE = wild-type E. coli MenE (Escherichia coli, UniProt P37353); assay: Direct fluorescent binding assay (intrinsic tryptophan fluorescence)
Sequence of wild-type E. coli MenE (P37353 whole entry): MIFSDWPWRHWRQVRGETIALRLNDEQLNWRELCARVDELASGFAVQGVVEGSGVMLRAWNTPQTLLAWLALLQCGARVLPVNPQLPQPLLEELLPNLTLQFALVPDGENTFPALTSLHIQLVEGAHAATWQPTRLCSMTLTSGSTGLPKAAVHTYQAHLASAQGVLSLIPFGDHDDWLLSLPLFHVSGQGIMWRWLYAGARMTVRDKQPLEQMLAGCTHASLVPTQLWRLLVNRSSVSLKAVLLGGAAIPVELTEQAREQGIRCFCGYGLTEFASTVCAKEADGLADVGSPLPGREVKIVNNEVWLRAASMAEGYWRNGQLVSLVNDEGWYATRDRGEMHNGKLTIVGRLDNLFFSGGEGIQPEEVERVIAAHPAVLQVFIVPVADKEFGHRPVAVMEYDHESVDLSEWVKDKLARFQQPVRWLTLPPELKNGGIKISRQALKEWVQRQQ
Protocol: Difluoroindandiol 109 was titrated into a solution of wild-type E. coli MenE and the change in fluorescence was measured using a Quanta Master fluorimeter at excitation and emission wavelengths of 280 and 332 nm, respectively. Data was analyzed using the Morrison equation.
Instead, to determine the Kd for 109, we used a direct binding assay in which the change in the intrinsic tryptophan fluorescence of ecMenE was monitored (see FIG. 14 for binding isotherm and data). […] The solution was stirred continuously, and fluorescence measurements were taken with a Quanta Master fluorimeter using excitation and emission wavelengths of 280 and 332 nm, respectively. Slit widths were optimized to 4 and 2 nm for excitation and emission, respectively. Data were corrected for the inner filter effect and then fit to the following equation using MATLAB: […]

E. coli MenE (ecMenE) = E. coli MenE (ecMenE) (Escherichia coli, UniProt P37353); assay: MenE-MenB coupled assay (enzyme inhibition, catalytic parameters); details: read-out: E. coli MenE IC50; Table E6
Sequence of E. coli MenE (ecMenE) (P37353 whole entry): as above
Protocol: Measurements were performed in triplicate for each compound.
Analysis of the catalytic efficiency (kcat/KM) of the mutant enzymes compared to wild type MenE was performed using the MenE-MenB coupled assay described above.

wild-type ecMenE = wild-type ecMenE (Escherichia coli, UniProt P37353)
Sequence of wild-type ecMenE (P37353 whole entry): as above
Protocol: The direct binding of inhibitors to MenE was quantified using isothermal titration calorimetry (ITC). Measurements were made with a MicroCal VP-ITC instrument at 25° C. Inhibitor stock solutions (1 mM in NaHPO4 buffer pH 7.4 containing 150 mM NaCl and 1 mM MgCl2) were titrated in 4 μL increments into a 50 μM solution of MenE in pH 7.4 20 mM sodium phosphate buffer containing 150 mM sodium chloride and 1 mM magnesium chloride. The data were fit to a single binding site model with the Origin software package.

[4] = Table E5, with addition of exogenous menaquinone-4 (10 μg/mL), read-out: B. subtilis MIC (in parentheses)
[5] = Table E5, without menaquinone-4, read-out: B. subtilis MIC
[6] = Table E5, with addition of exogenous menaquinone-4 (10 μg/mL), read-out: MRSA MIC (in parentheses)
[7] = Table E5, without menaquinone-4, read-out: MRSA MIC
[8] = Table E5, with addition of exogenous menaquinone-4 (10 μg/mL), read-out: M. tuberculosis MIC (in parentheses)
[9] = Table E5, without menaquinone-4, read-out: M. tuberculosis MIC
[10] = Table E2, ~90% cell death, read-out: B. subtilis MIC
[11] = Table E2, ~90% cell death, read-out: MRSA MIC
[12] = Table E2, ~90% cell death, read-out: M. tuberculosis MIC

Nc1ncnc2c1ncn2[C@@H]1O[C@H](COS(=O)(=O)NC(=O)CCC2(O)c3ccccc3C(O)C2(F)F)[C@@H](O)[C@H]1O (mixture of isomers) [Compound 2]
MIC (B. subtilis (ATCC 6051); [4]): 62.5 mg/L
MIC (B. subtilis (ATCC 6051); [5]): 15.6 mg/L
MIC [1, 6]: 62.5 mg/L
MIC [1, 7]: 15.6 mg/L
MIC (M. tuberculosis (H37Rv); [8]): 62.5 mg/L
MIC (M. tuberculosis (H37Rv); [9]): 15.6 mg/L
increase in MIC values when complemented with exogenous menaquinone-4 [2]: four-fold increase
decrease in menaquinone-8 [3]: 31%

Nc1ncnc2c1ncn2[C@@H]1O[C@H](COS(=O)(=O)NC(=O)CCC2(O)c3ccccc3C(O)C2(F)F)[C@@H](O)[C@H]1O (mixture of isomers) [Compound 109]
MIC (E. coli): > 500 mg/L
MIC (B. subtilis (ATCC 6051); [10]): 31.2 mg/L (≈ 53.3 µM)
MIC [1, 11]: 15.6 mg/L (≈ 26.6 µM)
MIC (M. tuberculosis (H37Rv); [12]): 15.6 mg/L (≈ 26.6 µM)
Kd (wild-type E. coli MenE): 0.12 ± 0.023 µM
pKa (physchem): 11.5

Nc1ncnc2c1ncn2[C@@H]1O[C@H](COS(=O)(=O)NC(=O)CCC(=O)c2ccccc2-c2c(O)c(=O)c2=O)[C@@H](O)[C@H]1O (stereo in doubt) [Compound 106]
MIC (E. coli): > 500 mg/L
MIC (B. subtilis (ATCC 6051); [10]): 250 mg/L (≈ 415 µM)
MIC [1, 11]: > 500 mg/L
MIC (M. tuberculosis (H37Rv); [12]): > 500 mg/L
cellular activity against any bacteria tested [2]: did not show cellular activity
pKa (physchem): 1.3

Nc1ncnc2c1ncn2[C@@H]1O[C@H](COS(=O)(=O)NC(=O)CC[C@@]2(O)c3ccccc3[C@H](O)C2(F)F)[C@@H](O)[C@H]1O [(1R,3S)-2, 5′-O—(N-[3″-((1R,3S)-2′″,2′″-difluoro-1′″,3′″-dihydroxy-1′″-indanyl)propanoyl]sulfamoyl)adenosine]
MIC (B. subtilis (ATCC 6051); [4]): 31.2 mg/L (≈ 53.2 µM)
MIC (B. subtilis (ATCC 6051); [5]): 15.6 mg/L (≈ 26.6 µM)
MIC [1, 6]: 31.2 mg/L (≈ 53.2 µM)
MIC [1, 7]: 15.6 mg/L (≈ 26.6 µM)
MIC (M. tuberculosis (H37Rv); [8]): 62.5 mg/L (≈ 107 µM)
MIC (M. tuberculosis (H37Rv); [9]): 15.6 mg/L (≈ 26.6 µM)
increase in MIC values when complemented with exogenous menaquinone-4 [2]: 2- to 4 fold
IC50 (E. coli MenE (ecMenE)): 5 µM

Nc1ncnc2c1ncn2[C@@H]1O[C@H](COS(=O)(=O)NC(=O)CC[C@]2(O)c3ccccc3[C@@H](O)C2(F)F)[C@@H](O)[C@H]1O [(1S,3R)-2, 5′-O—(N-[3″-((1S,3R)-2′″,2′″-difluoro-1′″,3′″-dihydroxy-1′″-indanyl)propanoyl]-sulfamoyl)adenosine]
MIC (B. subtilis (ATCC 6051); [4]): 31.2 mg/L (≈ 53.2 µM)
MIC (B. subtilis (ATCC 6051); [5]): 15.6 mg/L (≈ 26.6 µM)
MIC [1, 6]: 31.2 mg/L (≈ 53.2 µM)
MIC [1, 7]: 31.2 mg/L (≈ 53.2 µM)
MIC (M. tuberculosis (H37Rv); [8]): 62.5 mg/L (≈ 107 µM)
MIC (M. tuberculosis (H37Rv); [9]): 31.2 mg/L (≈ 53.2 µM)
rescue by exogenous menaquinone-4 ([2]; cultures complemented with exogenous menaquinone-4): Some rescue

Nc1ncnc2c1ncn2[C@@H]1O[C@H](COS(=O)(=O)NC(=O)CCC(=O)c2ccccc2C(=O)O)[C@@H](O)[C@H]1O [OSB-AMS, o-succinylbenzoate-adenenosinemonosulfamate, reference compound]
MIC (E. coli): > 500 mg/L
MIC (B. subtilis (ATCC 6051); [10]): 62.5 mg/L (≈ 114 µM)
MIC [1, 11]: 31.2 mg/L (≈ 56.8 µM)
MIC (M. tuberculosis (H37Rv); [12]): 125 mg/L (≈ 227 µM)
decrease in menaquinone-8 [3]: 2.5 fold
decrease in the levels of the menaquinones ([3]; OSB-AMS 15.6 μg/mL, overnight, 37° C.): 3-5 fold
pKa (physchem): 4
Kd (wild-type ecMenE): 0.044 ± 0.011 µM
ΔG (wild-type ecMenE; ITC, 25° C., pH 7.4): -41.8 kJ/mol
ΔH (wild-type ecMenE; ITC, 25° C., pH 7.4): -8.37 ± 0.42 kJ/mol
